Measurements taken from US20050203067A1, “Pesticidal compositions and methods” (priority 2003, published 2005).
pEC50: −log10 of the molar value. Values after ≈ are worked out from the molar mass of the structure shown. Values joined by “and” are separate entries in the source; they are usually repeats but may differ in a detail not shown here. Equal entries are not always repeated. “Also recorded” adds a separate entry of the source. Where two headings read alike, the source gives them in different places. Values belong to the compound of their own block, whether it stands above or below them.

Key:
[1] = tested on: C. elegans (strain N2); experiment: C. elegans contact assay (NGM-agar, 24-well); type: in vivo
[2] = tested on: C. elegans; experiment: Nematicidal activity of ethanolamine-like compounds on NGM plates (L4 P0, F1 phenotype); type: in vivo, Caenorhabditis elegans
[3] = tested on: A. ellesmerensis; experiment: Nematicidal activity against other nematodes (F1 phenotype); type: in vivo, Acrobiloides ellesmerensis
[4] = tested on: Cephalobus sp.; experiment: as above; type: in vivo
[5] = tested on: C. elegans; experiment: C. elegans liquid (well) assay; type: in vivo; conditions: Caenorhabditis elegans, read-out: Well EC50
[6] = tested on: cucumber seedling; experiment: Miniaturized greenhouse assay, phytotoxicity rating; conditions: for Ptox 40 (phytotoxicity rating): 40 ppm; for Ptox 200 (phytotoxicity rating): 200 ppm
[7] = tested on: Meloidogyne incognita J2 larvae; experiment: Miniaturized greenhouse assay on cucumber seedlings, root gall rating; type: in vivo; conditions: for Gall 40 (gall rating): 40 ppm; for Gall 200 (gall rating): 200 ppm
[8] = tested on: C. elegans; experiment: C. elegans agar (plate) assay; type: in vivo; conditions: Caenorhabditis elegans, read-out: Plate EC50
[9] = tested on: C. elegans PEAMT1 RNAi-generated mutants; type: in vivo; conditions: for rescue of PEAMT1 mutants: 5 mM
[10] = tested on: C. elegans PEAMT2 RNAi-generated mutants; conditions: in vivo
[11] = L4 P0 on NGM plates, 23° C., visual observation over several days
[12] = Caenorhabditis elegans, average number of adults in 4 replicate wells 96 hours after challenge, 20° C., read-out: EC50
[13] = rating scale 0-3 (% plant weight reduction)
[14] = 10 days after inoculation, rating scale 0-3 (% root mass galled)

- EC50 ([5]; liquid (well) assay, 20° C.): 6.3 to 12.5 µg/mL (≈ 26.3 to 52.2 µM)
- EC50 ([8]; agar (plate) assay, 20° C.): > 100 µg/mL
Compound: Cc1ccc(/N=N/c2ccc(N(C)C)cc2)cc1 [DC3785, Dimethyl-(4-p-tolylazo-phenyl)-amine]

- EC50 ([5]; liquid (well) assay, 20° C.): 0.4 to 0.78 µg/mL (≈ 1.67 to 3.26 µM)
- EC50 ([8]; agar (plate) assay, 20° C.): 1.6 µg/mL (≈ 6.69 µM)
Compound: Cc1cc(N(C)C)ccc1/N=N/c1ccccc1 [DC3787, Dimethyl-(3-methyl-4-phenylazo-phenyl)-amine]

- EC50 ([5]; liquid (well) assay, 20° C.): 25 to 50 µg/mL (≈ 110 to 221 µM)
- EC50 ([8]; agar (plate) assay, 20° C.): 12.5 to 25 µg/mL (≈ 55.2 to 110 µM)
Compound: CN(C)c1ccc(/N=N/c2ccccn2)cc1 [DC3791, Dimethyl-[4-(pyridin-2-ylazo)-phenyl]-amine]

- EC50 ([5]; liquid (well) assay, 20° C.): 3.2 to 6.3 µg/mL (≈ 11.5 to 22.7 µM)
- EC50 ([8]; agar (plate) assay, 20° C.): > 100 µg/mL
Compound: O=C1C=CC(=O)N1c1ccc(/N=N/c2ccccc2)cc1 [DC3792, 1-(4-Phenylazo-phenyl)-pyrrole-2,5-dione]

- EC50 ([5]; liquid (well) assay, 20° C.): 3.2 to 6.3 µg/mL (≈ 11.7 to 23 µM)
- EC50 ([8]; agar (plate) assay, 20° C.): 6.3 µg/mL (≈ 23 µM)
Compound: CC(=O)Nc1ccc(/N=N/c2ccccc2)cc1Cl [DC3796, N-(2-Chloro-4-phenylazo-phenyl)-acetamide]

- EC50 ([5]; liquid (well) assay, 20° C.): 0.2 to 0.4 µg/mL (≈ 0.657 to 1.31 µM)
- EC50 ([8]; agar (plate) assay, 20° C.): 0.4 µg/mL (≈ 1.31 µM)
Compound: CCNc1ccc(/N=N/c2ccc(Br)cc2)cc1 [DC3800, [4-(4-Bromo-phenylazo)-phenyl]-ethyl-amine]
- Ptox 40 (phytotoxicity rating) [6, 13]: 0.00
- Ptox 200 (phytotoxicity rating) [6, 13]: 2.67
- Gall 40 (gall rating) [7, 14]: 1.33
- Gall 200 (gall rating) [7, 14]: 0.00

- EC50 ([5]; liquid (well) assay, 20° C.): 0.2 to 0.4 µg/mL (≈ 0.836 to 1.67 µM)
- EC50 ([8]; agar (plate) assay, 20° C.): 0.4 µg/mL (≈ 1.67 µM)
Compound: CCNc1ccc(/N=N/c2ccc(C)cc2)cc1 [DC3801, Ethyl-(4-p-tolylazo-phenyl)-amine]
- Ptox 40 (phytotoxicity rating) [6, 13]: 1.67
- Ptox 200 (phytotoxicity rating) [6, 13]: 3.00
- Gall 40 (gall rating) [7, 14]: 1.33
- Gall 200 (gall rating) [7, 14]: 0.00

- EC50 ([5]; liquid (well) assay, 20° C.): 0.4 to 0.8 µg/mL (≈ 1.21 to 2.42 µM)
- EC50 ([8]; agar (plate) assay, 20° C.): 0.8 µg/mL (≈ 2.42 µM)
Compound: CN1CCCc2cc(/N=N/c3ccc(Br)cc3)ccc21 [DC3819, (4-Bromo-phenyl)-(1-methyl-1,2,3,4-tetrahydro-quinolin-6-yl)-diazene]

- EC50 ([5]; liquid (well) assay, 20° C.): 0.8 to 1.6 µg/mL (≈ 2.84 to 5.69 µM)
- EC50 ([8]; agar (plate) assay, 20° C.): 1.6 µg/mL (≈ 5.69 µM)
Compound: COc1ccc(/N=N/c2ccc3c(c2)CCCN3C)cc1 [DC3821, (4-Methoxy-phenyl)-(1-methyl-1,2,3,4-tetrahydro-quinolin-6-yl)-diazene]

- EC50 ([5]; liquid (well) assay, 20° C.): 6.2 to 12.5 µg/mL (≈ 25.6 to 51.6 µM)
- EC50 ([8]; agar (plate) assay, 20° C.): 3.2 µg/mL (≈ 13.2 µM)
Compound: CN(C)c1ccc(/N=N/c2ccccn2)c(O)c1 [DC3829, 5-Dimethylamino-2-(pyridin-2-ylazo)-phenol]

- EC50 ([5]; liquid (well) assay, 20° C.): 1.5 to 3.1 µg/mL (≈ 6.27 to 13 µM)
- EC50 ([8]; agar (plate) assay, 20° C.): 1.6 µg/mL (≈ 6.69 µM)
Compound: Cc1ccccc1/N=N/c1ccc(N(C)C)cc1 [DC3832, Dimethyl-(4-o-tolylazo-phenyl)-amine]

- EC50 ([5]; liquid (well) assay, 20° C.): 12.5 to 25 µg/mL (≈ 34.9 to 69.8 µM)
- EC50 ([8]; agar (plate) assay, 20° C.): 6.2 µg/mL (≈ 17.3 µM)
Compound: O=C1CSC(=S)N1c1ccc(/N=N/c2ccc([N+](=O)[O-])cc2)cc1 [DC3833, 3-[4-(4-Nitro-phenylazo)-phenyl]-2-thioxo-thiazolidin-4-one]

- EC50 ([5]; liquid (well) assay, 20° C.): 3.1 to 6.2 µg/mL (≈ 12.7 to 25.5 µM)
- EC50 ([8]; agar (plate) assay, 20° C.): 6.25 µg/mL (≈ 25.7 µM)
Compound: O=[N+]([O-])c1ccc(/N=N/c2ccc(O)cc2)cc1 [DC3844, 4-(4-Nitro-phenylazo)-phenol]

- EC50 ([5]; liquid (well) assay, 20° C.): 0.4 µg/mL (≈ 1.54 µM)
- EC50 ([8]; agar (plate) assay, 20° C.): 0.4 µg/mL (≈ 1.54 µM)
Compound: CN(C)c1ccc(/N=N/c2cccc(Cl)c2)cc1 [DC3853, [4-(3-Chloro-phenylazo)-phenyl]-dimethyl-amine]

- EC50 ([5]; liquid (well) assay, 20° C.): 12 µg/mL (≈ 53.3 µM)
Compound: CN(C)c1ccc(C(=O)c2ccccc2)cc1 [DC3890, (4-Dimethylamino-phenyl)-phenyl-methanone]

- EC50 ([5]; liquid (well) assay, 20° C.): 1.6 µg/mL (≈ 7.04 µM)
Compound: O=[N+]([O-])c1ccc(N=Nc2ccccc2)cc1 [DC3898, (4-Nitro-phenyl)-phenyl-diazene]

- EC50 ([5]; liquid (well) assay, 20° C.): 12.5 µg/mL (≈ 49.7 µM)
Compound: CN(C)c1ccc(/C=C/C(=O)c2ccccc2)cc1 [DC3901, 3-(4-Dimethylamino-phenyl)-1-phenyl-propenone]

More lines, now with the values behind:

Compound: 2-[(4-phenylazo)phenylanilino]ethanesulfonamide [Compound 3770]
- pEC50 ([1]; average number of adults in 4 replicate wells 96 hours after challenge, 20° C., read-out: EC50): 4.70

Compound: NCC(O)c1ccccc1 (stereo not shown) [2-amino-1-phenylethanol]
- F1 PHENOTYPE ([2]; C. elegans, 25 mM): Wild-type development
- nematicidal activity against C. elegans [2, 11]: no nematicidal effect

Compound: OCCNCc1ccccc1 [Compound 3702, 2-Benzylaminoethanol]
- pEC50 [1, 12]: 2.47

Compound: CC(C)(C)NCCO [Compound 3703, 2-(tert-Butylamino)ethanol]
- F1 PHENOTYPE ([2]; C. elegans, 10 mM): L1/L2 arrest/lethality
- nematicidal activity against C. elegans [2, 11]: showed nematicidal activity
- F1 PHENOTYPE ([3]; A. ellesmerensis, 10 mM): L1/L2 arrest/lethality
- F1 PHENOTYPE ([4]; Cephalobus sp., 10 mM): L1/L2 arrest/lethality
- pEC50 [1, 12]: 2.39

Compound: N[C@@H](CO)Cc1ccccc1 [Compound 3704, D-Phenylalaninol]
- F1 PHENOTYPE ([2]; in vivo): L1/L2 arrest/lethality
- nematicidal activity against C. elegans ([2]; in vivo): showed nematicidal activity
- F1 PHENOTYPE ([3]; in vivo): L1/L2 arrest/lethality
- F1 PHENOTYPE ([4]; in vivo): L1/L2 arrest/lethality
- pEC50 ([1]; Caenorhabditis elegans, 96 h): 2.60

Compound: OCCNc1ccccc1 [Compound 3733, N-(2-Hydroxyethyl)aniline]
- F1 PHENOTYPE ([2]; C. elegans, 10 mM): L1/L2 arrest/lethality
- nematicidal activity against C. elegans [2, 11]: showed nematicidal activity
- pEC50 [1, 12]: 2.38

Compound: COc1ccc(NCCS(=O)(=O)F)cc1 [Compound 3736, 2-4-methoxy-phenylaminoethanesulfonyl fluoride]
- pEC50 ([1]; in vivo, read-out: EC50): 3.30

Compound: O=S(=O)(F)CCNc1ccc(Cl)cc1 [Compound 3738, 2-4-chlorophenylaminoethanesulfonyl fluoride]
- pEC50 ([1]; in vivo, read-out: EC50): 4.09

Compound: O=C1CCC(=O)N1CCS(=O)(=O)F [Compound 3743, 2,5-Dioxo-1-pyrrolidineethanesulfonyl fluoride]
- pEC50 ([1]; in vivo, read-out: EC50): 2.89

Compound: O=S(=O)(F)CCn1nnc2ccccc21 [Compound 3745, 2-Benzotriazol-1-yl-ethanesulfonylfluoride]
- pEC50 ([1]; in vivo, read-out: EC50): 2.77 and 2.87

Compound: O=S(=O)(F)CCn1cnc2ccccc21 [Compound 3747, 2-Benzoimidazol-1-yl-ethanesulfonyl fluoride]
- pEC50 ([1]; in vivo, read-out: EC50): 2.85

Compound: O=S(=O)(F)CCNc1ccccc1 [Compound 3754, 2-phenylaminoethanesulfonyl fluoride]
- pEC50 ([1]; in vivo, read-out: EC50): 3.03 and 3.24

Compound: CCN(C)c1ccc(/N=N/c2ccccc2)cc1 [Compound 3761, 4-N-ethyl-N-methylaminoazobenzene]
- EC50 ([5]; liquid (well) assay, 20° C.): 6.3 to 12.5 µg/mL (≈ 26.3 to 52.2 µM)
- Ptox 40 (phytotoxicity rating) [6, 13]: 0.00
- Ptox 200 (phytotoxicity rating) [6, 13]: 1.00
- Gall 40 (gall rating) [7, 14]: 0.67
- Gall 200 (gall rating) [7, 14]: 0.00
- pEC50 [1, 12]: 5.15
- EC50 ([8]; agar (plate) assay, 20° C.): 0.8 µg/mL (≈ 3.34 µM)

Compound: CCNc1ccccc1 [Compound 3766, N-ethylaniline]
- pEC50 [1, 12]: 3.44

Compound: CN(C)c1ccc(/N=N/c2ccc(NCCS(=O)(=O)F)cc2)cc1 [Compound 3767, 2-[4-(4-dimethylamino-phenylazo)-phenylamino]-ethanesulfonyl fluoride]
- pEC50 ([1]; Caenorhabditis elegans, 96 h): 5.15

Compound: CN(C)c1ccc(/N=N/c2ccccc2)cc1 [DC3783, Dimethyl-(4-phenylazo-phenyl)-amine]
- EC50 [5]: 0.4 to 0.78 µg/mL (≈ 1.78 to 3.46 µM)
- EC50 [8]: 1.6 µg/mL (≈ 7.1 µM)

Compound: CNc1ccc(N=Nc2ccccc2)cc1 [DC3845, Methyl-(4-phenylazo-phenyl)-amine]
- EC50 [5]: 0.4 to 0.8 µg/mL (≈ 1.89 to 3.79 µM)
- Ptox 40 (phytotoxicity rating) [6]: 1.00
- Ptox 200 (phytotoxicity rating) [6]: 3.00
- Gall 40 (gall rating) [7]: 0.33
- Gall 200 (gall rating) [7]: 0.00
- EC50 [8]: 0.4 µg/mL (≈ 1.89 µM)

Compound: CN(C)CCO [DME, dimethylethanolamine]
- rescue of PEAMT1 mutants [9]: rescued
- F1 phenotype PEAMT1 dsRNA ([9]; in vivo): Fertile adults
- rescue of the sterility associated with PEAMT1 RNAi ([9]; in vivo): rescues the sterility
- F1 phenotype PEAMT2 dsRNA [10]: Sterility; also recorded: L1/L2 arrest/lethality

Compound: NCCO [EA, ethanolamine]
- F1 phenotype PEAMT1 dsRNA ([9]; in vivo): L1/L2 arrest/lethality
- F1 phenotype PEAMT2 dsRNA [10]: L1/L2 arrest/lethality

Compound: CNCCO [MME, monomethylethanolamine]
- rescue of PEAMT1 mutants [9]: rescued
- F1 phenotype PEAMT1 dsRNA ([9]; in vivo): Fertile adults
- F1 phenotype PEAMT2 dsRNA [10]: L1/L2 arrest/lethality
